Common to all, as to format: physicochemical
Data set [1] in a line: hydrolysis in the region of pH 4 to 10.
A short description of data set [2]: dissolution of dye in water for pKa measurement. Conditions: approximately 2×10^−5 mol L^−1 in water, conditions analogous to the reference dye. Here is the method: (§1) pKa values (acid dissociation constant) were measured for the reference dye by dissolving approximately 2×10^−5 mol L^−1 of the dye in water then varying the pH from 9.6 to 1.9 and observing the changes in the UV-VIS spectrum at 570 nm. The pKa values are higher than expected for a free —COOH group which would be 3 to 4 and is attributed to the effect of the alkyl chains.

A short description of data set [3]: pKa measured by pH variation and UV-VIS spectrum at 570 nm. Conditions: water, pH 4, approximately 2×10^−5 mol L^−1 dye in water, pH varied 9.6 to 1.9, UV-VIS at 570 nm; dual pKa fit for the 2 -COOH groups. How it is done:
as §1

Molecules are shown by their SMILES. Where two headings read alike, the source gives them in different places.

For the compound `C=COCCOCCN(CCOCCO)c1ccc(/N=N/c2sc(C#N)c(C)c2C#N)c(C)c1` [inventive], the hydrolysis entry in data set [1] is “not observed”; in data set [1] (listed as inventive compound), “resistant to hydrolysis”. Further, the dissolution in water result in data set [2] is “did not dissolve”.
For the compound `CCCCC/C=C/CC(CC(=O)OCCOCCN(CCOCCOC(=O)CC(C/C=C/CCCCC)C(=O)O)c1ccc(/N=N/c2sc(C#N)c(C)c2C#N)c(C)c1)C(=O)O` (centres unmarked) [reference, reference compound], the pKa (usually the negative logarithm of the acid dissociation constant) in data set [3] stood at 7.5. For the same compound, the hydrolysis entry in data set [1] is reported as “observed”.

Values taken from patent US20220098525A1, “LAUNDRY DETERGENT” (Conopco, Inc., d/b/a UNILEVER, priority 2019, published 2022).
